In PMC7259758 (PLoS ONE, 2020):
Like-named read-outs stand apart in the source and are kept apart here.

Columns and labels:
SF3B1 = target: T1, SF3B1 (Homo sapiens, UniProt O75533+Q7RTV0); assay: Competitive antagonist assay (TESLR in the presence of SD6 or hit compound); type: cell-based
T1 construct: endogenous in cells
Description: SK-MEL-2/Luc-MDM2 stable cells were plated at a density of 20,000 cells/well in 96-well plates and incubated overnight at 37°C in 5% CO2.[27, 28] The following day, cells were treated with 14 analogs using serial dilution for one hour. The list of compounds screened as potential TESLR antagonists are show in SI file. After one-hour pre-treatment, 4 μM of SD6 were added to the pre-treated cells for another 4 hours. Either 0.5% DMSO or serial dilutions of SD6 were used to treat cells for 4 hours as controls. At the end of incubation time, ONE-Glo™ EX reagents (Promega) were added to measure the luciferase activity. […]
Fig 6 Competitive antagonist assay. (Left Panel) The assay that identified two antagonists of SD6 activity in the TESLR screen, which are useful for the determination of SF3B1 binding. Relative luminescent units were plotted against corresponding drug concentrations and fitted with a standard four parameter sigmoidal curve with GraphPad Prism. (Right Panel) The structures of the antagonists and SD6. See SI for chemistry details.
. SK-MEL-2/Luc-MDM2 stable cells were plated at a density of 20000/well in 96-well plates and incubated overnight at 37°C in 5% CO2. […]. After one-hour pre-treatment, serial dilutions of the sudemycinol C were added to the pre-treated cells for another 4 hours. […]. At the end of incubation time, ONE-Glo™ EX reagents (Promega) were added to measure the luciferase activity. […]. DR: dose response.

MAPK2 (h) = target: T2, MAPK2 (h) (Homo sapiens, UniProt P28482); assay: Radiometric protein kinase assay (Eurofins); type: biochemical; conditions: ATP 155 μM
T2 construct: purchased Eurofins, Dundee, Scotland
Description: (§1) Enzymatic biochemical activities were evaluated in radiometric protein kinase assays (Eurofins, Dundee, Scotland). Kinases are incubated with buffer, substrate and [γ-^33P]-ATP (specific activity approx. 500 cpm/pmol, concentration as required). The reaction is initiated by the addition of the MgATP mix. After incubation for 40 minutes at room temperature, the reaction is stopped by the addition of 3% phosphoric acid solution. 10 μL of the reaction is then spotted onto a P30 filtermat and washed three times for 5 minutes in 75 mM phosphoric acid and once in methanol prior to drying and scintillation counting. All compounds are prepared to 50x final assay concentration in 100% DMSO. Positive control wells contain all components of the reaction with 2% DMSO. Blank wells contain all components of the reaction, with a reference inhibitor replacing the compound of interest. Each kinase is assigned a standard assay concentration of ATP within 20 μM of its apparent Km. Compounds were screened at 1 μM in duplicate or tested at 10 concentrations at half log dilution starting from 10 μM in singlicate. Dose response curves were fitted with four parameter logistic curve to obtain IC50 values. […]
(§2) Staurosporine is used as reference for all tested enzymes except for SRPK3 (reference inhibitor: K-252a. Nocardiopsis sp), NEK2 (reference inhibitor: […]), and CK2, CK2α2, MAPK1, MAPK2 (reference inhibitor: PKR Inhibitor). See Table 1 below for additional details.

DYRK2 (h) = target: T3, DYRK2 (h) (Homo sapiens, UniProt Q92630); assay: Radiometric protein kinase assay (Eurofins); type: biochemical; conditions: ATP 15 μM
T3 construct: purchased Eurofins, Dundee, Scotland
T3 sequence (Q92630 1-601): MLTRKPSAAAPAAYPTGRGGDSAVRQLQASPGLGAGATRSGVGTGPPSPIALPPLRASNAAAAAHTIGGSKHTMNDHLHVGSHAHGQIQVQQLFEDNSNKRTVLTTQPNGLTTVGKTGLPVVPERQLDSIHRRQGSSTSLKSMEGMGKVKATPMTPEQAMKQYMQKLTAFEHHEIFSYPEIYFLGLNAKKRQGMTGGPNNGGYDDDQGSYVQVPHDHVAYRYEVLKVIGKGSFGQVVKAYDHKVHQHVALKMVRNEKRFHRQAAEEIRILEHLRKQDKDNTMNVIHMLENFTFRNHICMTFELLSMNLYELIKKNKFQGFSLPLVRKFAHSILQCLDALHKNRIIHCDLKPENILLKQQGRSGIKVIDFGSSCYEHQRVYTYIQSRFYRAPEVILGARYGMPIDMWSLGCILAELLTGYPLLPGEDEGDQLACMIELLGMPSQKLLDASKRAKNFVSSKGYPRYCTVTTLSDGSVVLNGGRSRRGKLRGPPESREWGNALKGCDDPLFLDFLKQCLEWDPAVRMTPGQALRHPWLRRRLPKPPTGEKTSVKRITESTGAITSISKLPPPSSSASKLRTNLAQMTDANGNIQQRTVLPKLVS
Description: as §1, §2

CLK4(h) = target: T4, CLK4(h) (Homo sapiens, UniProt Q9HAZ1); assay: Radiometric protein kinase assay (Eurofins); type: biochemical; conditions: ATP 10 μM
T4 construct: purchased Eurofins, Dundee, Scotland
T4 sequence (Q9HAZ1 whole entry): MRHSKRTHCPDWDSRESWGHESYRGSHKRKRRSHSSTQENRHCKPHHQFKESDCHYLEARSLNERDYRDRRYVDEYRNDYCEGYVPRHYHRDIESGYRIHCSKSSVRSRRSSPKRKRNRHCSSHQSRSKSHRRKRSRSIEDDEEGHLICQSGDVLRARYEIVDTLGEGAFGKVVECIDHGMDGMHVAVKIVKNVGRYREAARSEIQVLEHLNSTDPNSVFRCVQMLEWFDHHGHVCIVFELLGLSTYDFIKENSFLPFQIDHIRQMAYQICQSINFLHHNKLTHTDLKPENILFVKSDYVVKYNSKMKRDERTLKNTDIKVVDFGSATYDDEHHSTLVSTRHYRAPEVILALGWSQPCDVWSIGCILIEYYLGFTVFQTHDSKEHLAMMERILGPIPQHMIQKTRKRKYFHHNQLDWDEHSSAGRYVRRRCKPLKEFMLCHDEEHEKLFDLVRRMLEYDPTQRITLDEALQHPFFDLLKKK
Description: as §1, §2

CK2 (h) = target: T5, CK2 (h) (Homo sapiens, UniProt P68400); assay: Radiometric protein kinase assay (Eurofins); type: biochemical; conditions: ATP 10 μM
T5 construct: purchased Eurofins, Dundee, Scotland
T5 sequence (P68400 whole entry): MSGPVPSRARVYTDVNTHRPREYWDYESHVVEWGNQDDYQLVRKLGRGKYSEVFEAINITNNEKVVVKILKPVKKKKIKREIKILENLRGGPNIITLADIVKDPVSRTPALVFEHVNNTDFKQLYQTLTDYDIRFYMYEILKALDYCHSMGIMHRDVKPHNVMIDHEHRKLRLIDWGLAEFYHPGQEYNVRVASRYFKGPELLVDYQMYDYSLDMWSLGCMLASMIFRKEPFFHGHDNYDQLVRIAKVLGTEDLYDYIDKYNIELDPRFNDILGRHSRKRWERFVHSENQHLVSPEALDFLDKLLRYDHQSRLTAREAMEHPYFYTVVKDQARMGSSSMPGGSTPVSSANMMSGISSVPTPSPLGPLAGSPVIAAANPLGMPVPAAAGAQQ
T5 sequence (P67870 whole entry partner): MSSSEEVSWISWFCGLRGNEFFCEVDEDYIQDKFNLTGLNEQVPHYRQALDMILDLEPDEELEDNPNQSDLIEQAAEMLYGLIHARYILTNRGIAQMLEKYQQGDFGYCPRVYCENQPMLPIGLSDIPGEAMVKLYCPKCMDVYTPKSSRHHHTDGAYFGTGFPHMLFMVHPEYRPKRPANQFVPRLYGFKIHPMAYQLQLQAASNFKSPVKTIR
Description: as §1, §2

DYRK1B (h) = target: T6, DYRK1B (h) (Homo sapiens, UniProt Q9Y463); assay: Radiometric protein kinase assay (Eurofins); type: biochemical; conditions: ATP 45 μM
T6 construct: purchased Eurofins, Dundee, Scotland
T6 sequence (Q9Y463 whole entry): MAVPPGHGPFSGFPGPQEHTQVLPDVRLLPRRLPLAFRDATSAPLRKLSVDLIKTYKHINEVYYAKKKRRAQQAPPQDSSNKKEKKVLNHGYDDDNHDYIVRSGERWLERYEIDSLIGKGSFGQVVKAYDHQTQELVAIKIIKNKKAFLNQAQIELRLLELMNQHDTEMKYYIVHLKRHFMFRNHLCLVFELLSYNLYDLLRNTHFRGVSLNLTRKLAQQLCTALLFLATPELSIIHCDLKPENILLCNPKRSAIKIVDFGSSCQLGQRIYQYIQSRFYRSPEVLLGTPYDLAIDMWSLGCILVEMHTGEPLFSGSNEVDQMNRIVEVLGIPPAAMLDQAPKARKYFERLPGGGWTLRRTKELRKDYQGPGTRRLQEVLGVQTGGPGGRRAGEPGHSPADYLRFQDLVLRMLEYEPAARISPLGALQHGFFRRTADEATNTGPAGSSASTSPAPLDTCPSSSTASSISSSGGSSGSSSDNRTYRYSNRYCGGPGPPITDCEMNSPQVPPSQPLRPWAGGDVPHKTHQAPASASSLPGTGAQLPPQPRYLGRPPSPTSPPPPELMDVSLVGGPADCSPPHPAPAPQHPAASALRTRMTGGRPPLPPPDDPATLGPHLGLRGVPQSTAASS
Description: as §1, §2

SRPK3 (h) = target: T7, SRPK3 (h) (Homo sapiens, UniProt Q9UPE1); assay: Radiometric protein kinase assay (Eurofins); type: biochemical; conditions: ATP 15 μM
T7 construct: purchased Eurofins, Dundee, Scotland
Description: as §1, §2

CLK3(h) = target: T8, CLK3(h) (Homo sapiens, UniProt P49761); assay: Radiometric protein kinase assay (Eurofins); type: biochemical; conditions: ATP 90 μM
T8 construct: purchased Eurofins, Dundee, Scotland
T8 sequence (P49761 whole entry): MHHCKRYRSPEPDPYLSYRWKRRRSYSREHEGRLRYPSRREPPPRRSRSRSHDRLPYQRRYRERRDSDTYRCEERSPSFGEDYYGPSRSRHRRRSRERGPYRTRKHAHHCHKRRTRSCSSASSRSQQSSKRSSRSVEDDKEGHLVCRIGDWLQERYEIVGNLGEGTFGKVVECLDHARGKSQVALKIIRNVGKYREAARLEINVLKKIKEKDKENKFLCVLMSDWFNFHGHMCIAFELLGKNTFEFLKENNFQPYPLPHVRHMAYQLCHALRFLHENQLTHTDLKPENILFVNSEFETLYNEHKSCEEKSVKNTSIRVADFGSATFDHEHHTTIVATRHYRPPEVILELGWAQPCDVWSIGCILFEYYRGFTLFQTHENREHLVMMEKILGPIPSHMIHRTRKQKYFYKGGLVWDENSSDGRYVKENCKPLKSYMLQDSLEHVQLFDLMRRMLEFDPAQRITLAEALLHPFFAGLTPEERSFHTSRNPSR
Description: as §1, §2

AKT3 = target: T9, AKT3 (Homo sapiens, UniProt Q9Y243); assay: Radiometric protein kinase assay (Eurofins); type: biochemical; conditions: ATP 45 μM
T9 construct: purchased Eurofins, Dundee, Scotland
T9 sequence (Q9Y243 whole entry): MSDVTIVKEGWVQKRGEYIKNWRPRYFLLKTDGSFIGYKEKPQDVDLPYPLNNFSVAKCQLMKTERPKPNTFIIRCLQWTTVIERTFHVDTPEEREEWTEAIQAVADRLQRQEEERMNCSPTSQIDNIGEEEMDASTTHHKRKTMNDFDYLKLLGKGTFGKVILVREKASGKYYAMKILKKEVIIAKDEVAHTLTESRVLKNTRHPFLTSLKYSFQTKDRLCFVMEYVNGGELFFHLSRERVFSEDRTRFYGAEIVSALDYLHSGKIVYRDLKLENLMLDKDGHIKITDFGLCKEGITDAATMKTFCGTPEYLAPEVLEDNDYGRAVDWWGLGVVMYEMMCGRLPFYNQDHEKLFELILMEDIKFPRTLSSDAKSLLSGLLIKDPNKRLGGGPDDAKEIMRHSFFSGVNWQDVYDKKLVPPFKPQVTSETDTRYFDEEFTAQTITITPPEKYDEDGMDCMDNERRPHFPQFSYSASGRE
Description: as §1, §2

MAPK1 (h) = target: T10, MAPK1 (h) (Homo sapiens, UniProt P27361); assay: Radiometric protein kinase assay (Eurofins); type: biochemical
T10 construct: purchased Eurofins, Dundee, Scotland
Description: as §1, §2

SRPK1(h) = target: T11, SRPK1(h) (Homo sapiens, UniProt Q96SB4); assay: Radiometric protein kinase assay (Eurofins); type: biochemical; conditions: ATP 10 μM
T11 construct: purchased Eurofins, Dundee, Scotland
T11 sequence (Q96SB4 whole entry): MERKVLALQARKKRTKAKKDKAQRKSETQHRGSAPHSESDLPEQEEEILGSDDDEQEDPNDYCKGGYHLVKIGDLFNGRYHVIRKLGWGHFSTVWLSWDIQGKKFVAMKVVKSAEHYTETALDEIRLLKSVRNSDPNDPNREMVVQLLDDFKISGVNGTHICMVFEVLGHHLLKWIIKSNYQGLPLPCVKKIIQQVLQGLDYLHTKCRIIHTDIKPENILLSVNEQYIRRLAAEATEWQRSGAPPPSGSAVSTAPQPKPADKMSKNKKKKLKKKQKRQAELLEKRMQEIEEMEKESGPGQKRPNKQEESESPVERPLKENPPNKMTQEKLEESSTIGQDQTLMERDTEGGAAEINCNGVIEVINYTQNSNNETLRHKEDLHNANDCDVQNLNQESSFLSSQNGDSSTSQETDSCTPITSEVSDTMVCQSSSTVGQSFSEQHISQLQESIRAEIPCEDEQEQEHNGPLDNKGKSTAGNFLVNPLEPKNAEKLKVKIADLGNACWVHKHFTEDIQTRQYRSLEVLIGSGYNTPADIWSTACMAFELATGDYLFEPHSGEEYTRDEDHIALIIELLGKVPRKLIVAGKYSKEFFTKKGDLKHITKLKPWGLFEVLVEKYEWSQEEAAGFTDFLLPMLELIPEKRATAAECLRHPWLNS
Description: as §1, §2

GSK3α(h) = target: T12, GSK3α(h) (Homo sapiens, UniProt P49840); assay: Radiometric protein kinase assay (Eurofins); type: biochemical; conditions: ATP 10 μM
T12 construct: purchased Eurofins, Dundee, Scotland
T12 sequence (P49840 whole entry): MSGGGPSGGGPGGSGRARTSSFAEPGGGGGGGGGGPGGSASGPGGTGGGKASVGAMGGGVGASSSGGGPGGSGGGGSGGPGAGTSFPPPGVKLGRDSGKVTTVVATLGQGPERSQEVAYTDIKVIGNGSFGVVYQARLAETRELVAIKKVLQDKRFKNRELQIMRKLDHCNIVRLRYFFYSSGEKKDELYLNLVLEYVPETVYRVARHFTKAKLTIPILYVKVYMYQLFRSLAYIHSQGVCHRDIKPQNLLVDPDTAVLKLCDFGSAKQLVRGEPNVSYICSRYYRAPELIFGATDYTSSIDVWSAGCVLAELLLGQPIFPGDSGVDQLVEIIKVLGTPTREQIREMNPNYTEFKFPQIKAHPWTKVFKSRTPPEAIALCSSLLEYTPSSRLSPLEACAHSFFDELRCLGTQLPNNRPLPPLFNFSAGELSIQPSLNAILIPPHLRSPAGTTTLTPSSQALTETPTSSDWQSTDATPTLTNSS
Description: as §1, §2

CK2α2 (h) = target: T13, CK2α2 (h) (Homo sapiens, UniProt P19784); assay: Radiometric protein kinase assay (Eurofins); type: biochemical; conditions: ATP 10 μM; read-out: CK2a2 IC50
T13 construct: purchased Eurofins, Dundee, Scotland
Description: as §1, §2

SRPK2 (h) = target: T14, SRPK2 (h) (Homo sapiens, UniProt P78362); assay: Radiometric protein kinase assay (Eurofins); type: biochemical; conditions: ATP 10 μM
T14 construct: purchased Eurofins, Dundee, Scotland
T14 sequence (P78362 whole entry): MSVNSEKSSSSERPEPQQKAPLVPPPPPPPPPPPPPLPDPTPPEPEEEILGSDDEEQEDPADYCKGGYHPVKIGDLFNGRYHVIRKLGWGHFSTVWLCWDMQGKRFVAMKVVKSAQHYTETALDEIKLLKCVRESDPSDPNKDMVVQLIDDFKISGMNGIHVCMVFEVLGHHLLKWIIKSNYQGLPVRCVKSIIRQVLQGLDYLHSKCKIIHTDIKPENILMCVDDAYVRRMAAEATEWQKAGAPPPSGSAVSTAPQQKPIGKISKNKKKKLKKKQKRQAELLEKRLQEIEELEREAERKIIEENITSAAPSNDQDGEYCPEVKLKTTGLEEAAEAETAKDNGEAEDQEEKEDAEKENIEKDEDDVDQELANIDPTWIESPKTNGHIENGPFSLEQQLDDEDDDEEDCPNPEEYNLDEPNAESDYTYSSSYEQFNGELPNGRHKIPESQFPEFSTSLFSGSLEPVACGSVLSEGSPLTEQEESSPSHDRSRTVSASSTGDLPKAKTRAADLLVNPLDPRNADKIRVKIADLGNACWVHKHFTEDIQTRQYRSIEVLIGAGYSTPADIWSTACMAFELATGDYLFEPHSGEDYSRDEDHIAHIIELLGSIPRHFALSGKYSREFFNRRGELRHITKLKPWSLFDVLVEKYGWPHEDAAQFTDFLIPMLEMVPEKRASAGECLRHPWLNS
Description: as §1, §2

CLK1(h) = target: T15, CLK1(h) (Homo sapiens, UniProt P49759); assay: Radiometric protein kinase assay (Eurofins); type: biochemical; conditions: ATP 10 μM
T15 construct: purchased Eurofins, Dundee, Scotland
T15 sequence (P49759 whole entry): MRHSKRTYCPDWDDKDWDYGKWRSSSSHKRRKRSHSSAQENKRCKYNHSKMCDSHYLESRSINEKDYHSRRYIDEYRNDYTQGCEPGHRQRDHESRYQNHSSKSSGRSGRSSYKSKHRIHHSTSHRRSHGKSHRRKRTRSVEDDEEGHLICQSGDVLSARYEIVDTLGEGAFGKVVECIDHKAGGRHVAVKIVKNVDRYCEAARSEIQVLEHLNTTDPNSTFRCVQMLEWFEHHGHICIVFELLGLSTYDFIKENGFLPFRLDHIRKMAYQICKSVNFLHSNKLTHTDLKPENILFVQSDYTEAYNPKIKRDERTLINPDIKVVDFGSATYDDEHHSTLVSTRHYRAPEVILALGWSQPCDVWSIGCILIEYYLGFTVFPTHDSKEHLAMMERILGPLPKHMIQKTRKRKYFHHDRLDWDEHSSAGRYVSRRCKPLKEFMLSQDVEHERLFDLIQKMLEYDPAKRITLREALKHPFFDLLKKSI
Description: as §1, §2

DYRK1A(h) = target: T16, DYRK1A(h) (Homo sapiens, UniProt Q13627); assay: Radiometric protein kinase assay (Eurofins); type: biochemical; conditions: ATP 45 μM
T16 construct: purchased Eurofins, Dundee, Scotland
Description: as §1, §2

[1] = system: MDM2 pre-mRNA splicing in Rh18 cells; assay: RT-PCR confirmation of splicing changes, MDM2; type: cell-based; conditions: 4 h, SD6 10 μM, compound 1 10 μM, compound 2 5 μM, compound 3 10 μM
Description: RH-18 cells were cultured in RPMI 1640 medium containing 10% FCS. Cells are all maintained in humidified incubator with 5% CO2 at 37°C. Rh18 cells were exposed to 0.5% DMSO or SD6 10 μM, Cpd1 10 μM, Cpd2 5 μM or Cpd3 10 μM for 4 h. Total RNA was extracted and converted to cDNA. PCR was performed using NEB Q5 Master Mix and specific primers listed below (Table 2) according to the manufacturer’s instruction and standard PCR protocols: 50 ng cDNA and 30 μl of the final reaction volume was used. PCR products were subjected to 3% agarose gel electrophoresis.
AS patterns were identified with compound treatment for MDM2 and RBM39 transcripts. Ubiquitin (UBQ) transcripts were used as a control since these are not spliced. […] Rh18 cells were treated with either DMSO control or compounds for 4 h. Total RNA was extracted and converted to cDNA. PCR was performed using corresponding primers and PCR products were subjected to 3% agarose gel electrophoresis.

CDK2/cyclinA (h) = target: T17, CDK2/cyclinA (h) (Homo sapiens, UniProt P24941); assay: Radiometric protein kinase assay (Eurofins); type: biochemical; conditions: ATP 45 μM
T17 construct: purchased Eurofins, Dundee, Scotland
Description: Enzymatic biochemical activities were evaluated in radiometric protein kinase assays (Eurofins, Dundee, Scotland). Kinases are incubated with buffer, substrate and [γ-^33P]-ATP (specific activity approx. 500 cpm/pmol, concentration as required). The reaction is initiated by the addition of the MgATP mix. After incubation for 40 minutes at room temperature, the reaction is stopped by the addition of 3% phosphoric acid solution. 10 μL of the reaction is then spotted onto a P30 filtermat and washed three times for 5 minutes in 75 mM phosphoric acid and once in methanol prior to drying and scintillation counting. All compounds are prepared to 50x final assay concentration in 100% DMSO. Positive control wells contain all components of the reaction with 2% DMSO. Blank wells contain all components of the reaction, with a reference inhibitor replacing the compound of interest. […] Compounds were screened at 1 μM in duplicate or tested at 10 concentrations at half log dilution starting from 10 μM in singlicate. Dose response curves were fitted with four parameter logistic curve to obtain IC50 values.

[2] = system: triple-exon skipping of MDM2 pre-mRNA in SK-MEL-2/Luc-MDM2 cells; assay: TESLR (Triple Exon Skipping Luciferase Reporter) dose response; conditions: for EC50: read-out: TESLR EC50
Description: SK-MEL-2/MDM2-Luc stable cells were cultured in MEM medium with Earle's salts and L-glutamine containing 1 mM sodium pyruvate, 10% FCS and 10 mM Hepes and plated at a density of 10,000/well in 96-well plates and incubated overnight at 37°C in 5% CO2. The following day, cells were treated with serial dilutions of compounds for 4 hrs, ONE-Glo reagents (Promega) were added to measure the luciferase activity on an EnVision plate reader. SD6 and 0.5% DMSO were used as positive and negative controls, respectively. Relative luminescent units were plotted against corresponding drug concentrations and fitted with a standard four parameter sigmoidal curve with GraphPad Prism.
The TESLR assay in SK-MEL-2/Luc-MDM2 cells with 4 hour treatment. SK-MEL-2/Luc-MDM2 stable cells were plated at a density of 20,000 cells/well in 96-well plates and incubated overnight at 37°C in 5% CO2. The following day, cells were treated with either 0.5% DMSO or serial dilution of hits identified from the library screen in 0.5% DMSO for 4 hours. ONE-Glo™ EX reagent (Promega) was added to measure the luciferase activity using an EnVision plate reader. Relative luminescent units were plotted against corresponding drug concentrations and fitted with a standard four parameter sigmoidal curve with GraphPad Prism.
SK-MEL-2/Luc-MDM2 stable cells were plated at a density of 20,000 cells/well in 96-well plates and incubated overnight at 37°C in 5% CO2. The following day, cells were treated with serial dilutions of the indicated compounds for 4 hours and ONE-Glo™ EX reagents (Promega) were added to measure the luciferase activity.

phosphorylation of SF3B1 = assay: Western blot of nuclear extracts, phosphor-SF3B1; conditions: 4 h
Description: (§3) HCT116 cells were seeded at 3 million cells per 100 mm culture plate. The next day cells were treated with 5 μM or 10 μM of each compound for 4h and 8h. […] The pellet was snap frozen on dry ice and then thawed and spun at 12K rpm for 5 min, 4C. The supernatant was collected (nuclear extract) and protein concentrations determined using BCA Protein Assay Kit. […] The proteins were transferred to PVDF membrane using a wet transfer system. […] After the secondary antibody incubation, membranes were washed 4X with PBS containing 0.1% Tween-20 and 1X with PBS before imaging using the Li-Cor Odyssey imaging system.
(§4) Lanes 6 to 10 are nuclear extracts from Rh18 cells.

[3] = system: phosphorylation of SR proteins; assay: Western blot of nuclear extracts, phosphor-SR proteins; conditions: HCT116 and Rh18 cells, 4 h; SD6 10 μM, compound 1 10 μM, compound 2 5 μM, compound 3 10 μM
Description: as §3, §4

CC(C=CC1CC2(CO2)CC(C)(C)O1)=CCC1OCC(NC(=O)C=CC(C)O)CO1 (stereo not drawn) [Sudemycinol E, sudemycinol E] was tested, and the IC50 (SF3B1; 1 h pre-treatment with analog, then 4 μM SD6 for another 4 hours, read-out: IC50 for antagonism of SD6 activity in the TESLR assay) was 16100 nM.
With CN(c1ncccc1CNc1nc(Nc2ccc3c(c2)CC(=O)N3)ncc1C(F)(F)F)S(C)(=O)=O [Compound 3, PF-562271] the IC50 (MAPK2 (h)) was 863 nM, the “DYRK2 IC50” value (DYRK2 (h)) was “NA (NA: Not Active (less than 50% inhibition at 1 micromolar))” and the IC50 (CLK4(h)) was 155 nM. The “CK2 IC50” value (CK2 (h)) was “NA (NA: Not Active (less than 50% inhibition at 1 micromolar))”, the “DYRK1B IC50” value (DYRK1B (h)) was “NA (NA: Not Active (less than 50% inhibition at 1 micromolar))” and the “SRPK3 IC50” value (SRPK3 (h)) was “NA (NA: Not Active (less than 50% inhibition at 1 micromolar))”. For the same compound, the “CLK3 IC50” value (CLK3(h)) was “NA (NA: Not Active (less than 50% inhibition at 1 micromolar))”, the “AKT3 IC50” value (AKT3) was “NA (NA: Not Active (less than 50% inhibition at 1 micromolar))” and the “MAPK1 IC50” value (MAPK1 (h)) was “NA (NA: Not Active (less than 50% inhibition at 1 micromolar))”. The “SRPK1 IC50” value (SRPK1(h)) was “NA (NA: Not Active (less than 50% inhibition at 1 micromolar))”, the IC50 (GSK3α(h)) was 221 nM and the IC50 (CK2α2 (h)) was 374 nM. The “SRPK2 IC50” value (SRPK2 (h)) was “NA (NA: Not Active (less than 50% inhibition at 1 micromolar))”, the IC50 (CLK1(h)) was 141 nM and the “DYRK1A IC50” value (DYRK1A(h)) was “NA (NA: Not Active (less than 50% inhibition at 1 micromolar))”. For the same compound, the “Antagonism of the compound's TESLR activity by sudemycinol C” value (SF3B1; 6 μM compound for one hour, then serial dilutions of sudemycinol C for another 4 hours) was “did not antagonize”, the “MDM2 alternative splicing (AS) pattern by RT-PCR” value [1] was “dominant MDM2 transcript (the same size as the DMSO control) and an AS isoform of 785 bp” and the IC50 (CDK2/cyclinA (h)) was 203 nM. For the same compound, the EC50 ([2]; SK-MEL-2/Luc-MDM2 cells, 4 hour treatment, luciferase activity) was 5560 nM and the “Effect on phosphorylation of SF3B1 (immunoblot)” value (phosphorylation of SF3B1; HCT116 cells, 10 μM) was “inhibited the phosphorylation of SF3B1 protein in HCT116 cells”.
CC(C)(C)c1cnc(CSc2cnc(NC(=O)C3CCNCC3)s2)o1 [SNS-032] gave an IC50 ([2]; Homo sapiens, SK-MEL-2, 4 h, read-out: TESLR IC50 in inducing triple exon skipping) greater than 10000 nM.
In the case of CNC(=O)OC(C)C=CC(=O)NC1CCC(CC=C(C)C=CC2CC3(CO3)CC(C)(C)O2)CC1 (stereo not drawn) [SD6, sudemycin D6], the “MDM2 alternative splicing (AS) pattern by RT-PCR” value [1] is reported as “dominant AS isoform at size of 1019 bp”, the “Effect on phosphorylation of SR proteins (immunoblot)” value [3] is reported as “did not inhibit the phosphorylation of SR proteins” and the EC50 ([2]; Homo sapiens, SK-MEL-2, 4 h) is reported as 862 nM. For the same compound, the “TESLR Maximum fold change” value ([2]; SK-MEL-2/Luc-MDM2 cells, 4 hours, luciferase activity) was 28.3 and the “Effect on phosphorylation of SF3B1 (immunoblot)” value (phosphorylation of SF3B1; HCT116 and Rh18 cells, SD6 10 μM, compound 1 10 μM, compound 2 5 μM) was “did inhibit the phosphorylation of SF3B1”.
